Results as given in publication PMC9243000 (Cell Discovery, 2022).
Positions of bridges follow the written chain, without caps; N, C: chain ends. Chains are numbered I, II in the order given. No end group written: not given here.

How the values were obtained:
SARS-CoV-2 Delta variant = conditions: 18 h
SARS-CoV-2 Beta variant = conditions: 18 h
SARS-CoV-2 Alpha variant = conditions: 18 h
[1] = system: Omicron variant (B.1.1.529); test: Post-exposure antiviral assay in hamsters, Omicron; assay type: in vivo
[2] = system: SARS-CoV-2 (B.1.1.63, D614G); assay type: cell-based

Work on “I: GAICHPVFCPRRYKQIGTCGLPGTKCCKKPKK / II: GAICHPVFCPRRYKQIGTCGLPGTKCCKKPK / III: GAICHPVFCPRRYKQIGTCGLPGTKCCKKP / IV: GAICHPVFCPRRYKQIGTCGLPGTKCCKKP (amide I:31-IV:C, I:32-II:C, II:31-III:C; cysteines drawn unpaired) [4H30]” yielded an IC50 (SARS-CoV-2 Delta variant) of 0.79 µg/mL, an IC50 (SARS-CoV-2 Beta variant) of 0.89 µg/mL and an IC50 (SARS-CoV-2 Alpha variant) of 0.75 µg/mL. For the same substance, the “Omicron variant titers in the nasal wash” value ([1]; […], plaque assay, n = 4) was “significantly reduce”, the “inhibition of Omicron replication in hamster lungs” value ([1]; hamster, in vivo) was “more than 20 fold” and the “inhibition of SARS-CoV-2 replication when added at 6 hpi” value [2] was “significantly inhibit”.
